In the NIST ThermoML archive (doi:10.1016/j.fluid.2008.11.001):
± gives the expanded uncertainty stated by the source.

Columns and labels:
[1] = 298.15 K; 101 kPa; Liquid; Vibrating tube method
[2] = refractive index (Na D-line) (dimensionless); settings: 298.15 K; 101.33 kPa; Liquid; refractometer
[3] = xn = mol fraction of the nth substance listed; settings: 298.15 K, 101 kPa, Liquid, Vibrating tube method
[4] = refractive index (Na D-line) (dimensionless); xn = mol fraction of the nth substance listed; settings: 298.15 K, 101 kPa, Liquid, refractometer

Work on `CC(C)CC(C)(C)C` [2,2,4-trimethylpentane] yielded a mass density [1] of 688.18 ± 0.15 kg/m3 and a refractive index [2] of 1.38898 ± 0.00014.
Compound `CC(C)CC(C)(C)C` [2,2,4-trimethylpentane] + COC(=O)OC has a mass density ([3]; x2 = 0) of 688.18 ± 0.15 kg/m3 and a refractive index ([4]; x2 = 0) of 1.38898 ± 0.00014.
With `COC(=O)OC` [dimethyl carbonate] the mass density [1] was 1063.04 ± 0.06 kg/m3 and the refractive index [2] was 1.36654 ± 0.00014.
`COC(=O)OC` [dimethyl carbonate] + CC(C)CC(C)(C)C showed a mass density ([3]; x1 = 0.0508) of 697.25 ± 0.15 kg/m3, a mass density ([3]; x1 = 0.1017) of 706.78 ± 0.15 kg/m3 and a mass density ([3]; x1 = 0.1995) of 727.06 ± 0.15 kg/m3. It also gave a mass density ([3]; x1 = 0.3007) of 751.06 ± 0.15 kg/m3, a mass density ([3]; x1 = 0.4002) of 778.05 ± 0.17 kg/m3 and a mass density ([3]; x1 = 0.5002) of 809.37 ± 0.2 kg/m3. For the same compound, the mass density ([3]; x1 = 0.5996) was 845.17 ± 0.18 kg/m3, the mass density ([3]; x1 = 0.7005) was 887.53 ± 0.16 kg/m3 and the mass density ([3]; x1 = 0.8002) was 936.46 ± 0.12 kg/m3. The mass density ([3]; x1 = 0.9011) was 994.92 ± 0.07 kg/m3, the mass density ([3]; x1 = 0.9504) was 1027.38 ± 0.06 kg/m3 and the mass density ([3]; x1 = 1) was 1063.04 ± 0.06 kg/m3. For the same compound, the refractive index ([4]; x1 = 0.0508) was 1.38814 ± 0.00014, the refractive index ([4]; x1 = 0.1017) was 1.38716 ± 0.00014 and the refractive index ([4]; x1 = 0.1995) was 1.38504 ± 0.00014. The refractive index ([4]; x1 = 0.3007) was 1.38275 ± 0.00014, the refractive index ([4]; x1 = 0.4002) was 1.38062 ± 0.00014 and the refractive index ([4]; x1 = 0.5002) was 1.37889 ± 0.00014. For the same compound, the refractive index ([4]; x1 = 0.5996) was 1.37642 ± 0.00014, the refractive index ([4]; x1 = 0.7005) was 1.37408 ± 0.00014 and the refractive index ([4]; x1 = 0.8002) was 1.37109 ± 0.00014. It also gave a refractive index ([4]; x1 = 0.9011) of 1.36879 ± 0.00014, a refractive index ([4]; x1 = 0.9504) of 1.36722 ± 0.00014 and a refractive index ([4]; x1 = 1) of 1.36654 ± 0.00014.
With `COC(=O)OC` [dimethyl carbonate] + CCO the mass density ([3]; x1 = 0.051) was 805.05 ± 0.11 kg/m3, the mass density ([3]; x1 = 0.1) was 823.15 ± 0.11 kg/m3 and the mass density ([3]; x1 = 0.1999) was 857.92 ± 0.11 kg/m3. It also gave a mass density ([3]; x1 = 0.2998) of 889.9 ± 0.12 kg/m3, a mass density ([3]; x1 = 0.4005) of 919.86 ± 0.13 kg/m3 and a mass density ([3]; x1 = 0.5008) of 947.72 ± 0.15 kg/m3. For the same compound, the mass density ([3]; x1 = 0.6011) was 973.66 ± 0.11 kg/m3, the mass density ([3]; x1 = 0.6993) was 997.55 ± 0.08 kg/m3 and the mass density ([3]; x1 = 0.8002) was 1020.67 ± 0.07 kg/m3. The mass density ([3]; x1 = 0.9008) was 1042.49 ± 0.06 kg/m3, the mass density ([3]; x1 = 0.9514) was 1053.11 ± 0.06 kg/m3 and the mass density ([3]; x1 = 1) was 1063.04 ± 0.06 kg/m3. The refractive index ([4]; x1 = 0.051) was 1.36039 ± 0.00014, the refractive index ([4]; x1 = 0.1) was 1.3606 ± 0.00014 and the refractive index ([4]; x1 = 0.1999) was 1.36122 ± 0.00014. For the same compound, the refractive index ([4]; x1 = 0.2998) was 1.36186 ± 0.00014, the refractive index ([4]; x1 = 0.4005) was 1.36241 ± 0.00014 and the refractive index ([4]; x1 = 0.5008) was 1.36301 ± 0.00014. It also gave a refractive index ([4]; x1 = 0.6011) of 1.36375 ± 0.00014, a refractive index ([4]; x1 = 0.6993) of 1.36439 ± 0.00014 and a refractive index ([4]; x1 = 0.8002) of 1.36504 ± 0.00014. The refractive index ([4]; x1 = 0.9008) was 1.36576 ± 0.00014, the refractive index ([4]; x1 = 0.9514) was 1.36614 ± 0.00014 and the refractive index ([4]; x1 = 1) was 1.36654 ± 0.00014.
In the case of `CCO` [ethanol], the mass density [1] is reported as 785.33 ± 0.12 kg/m3 and the refractive index [2] is reported as 1.35933 ± 0.00014.
`CCO` [ethanol] + COC(=O)OC showed a mass density ([3]; x2 = 0) of 785.33 ± 0.12 kg/m3 and a refractive index ([4]; x2 = 0) of 1.35933 ± 0.00014.
